Results from patent US7977481B2, “Pyrimidinyl-thiophene kinase modulators” (SGX Pharmaceuticals, Inc., priority 2005, dated 2011).

Experiments:
HCT116 cells = assay: 96-well XTT cell survival assay (AurA XTT); assay type: cell-based; conditions: Homo sapiens, HCT-116, 72 hours
Method: HCT116 cells were maintained in McCoy's 5a Medium supplemented with 10% fetal bovine serum (FBS) 2 mM L-Glutamine and 100 units penicillin/100 μg streptomycin, at 37° C. in 5% CO2
Compounds were tested in the following assays in duplicate.
96-well XTT assay: Cells were grown in growth media containing various concentrations of compounds (duplicates) on a 96-well flat bottom plate for 72 hours at 37° C. in 5% CO2. The starting cell number was 5000 cells per well and volume was 120 μl. At the end of the 72-hour incubation, 40 μl of XTT labeling mixture (50:1 solution of sodium 3′-[1-(phenylaminocarbonyl)-3,4-tetrazolium]-bis(4-methoxy-6-nitro) benzene sulfonic acid hydrate and Electron-coupling reagent: PMS (N-methyl dibenzopyrazine methyl sulfate) were added to each well of the plate. After an additional 2-6 hours […] with a spectrophotometer.

[1] = target: T1, Autophosphorylated AurA kinase (Homo sapiens, UniProt O14965); assay: AurA Luminescence-Based ATP Depletion Enzyme Assay; assay type: biochemical; conditions: 10 μM ATP
T1 construct: made in house; host or cells: Sf9 insect cells
T1 sequence (O14965 1-403): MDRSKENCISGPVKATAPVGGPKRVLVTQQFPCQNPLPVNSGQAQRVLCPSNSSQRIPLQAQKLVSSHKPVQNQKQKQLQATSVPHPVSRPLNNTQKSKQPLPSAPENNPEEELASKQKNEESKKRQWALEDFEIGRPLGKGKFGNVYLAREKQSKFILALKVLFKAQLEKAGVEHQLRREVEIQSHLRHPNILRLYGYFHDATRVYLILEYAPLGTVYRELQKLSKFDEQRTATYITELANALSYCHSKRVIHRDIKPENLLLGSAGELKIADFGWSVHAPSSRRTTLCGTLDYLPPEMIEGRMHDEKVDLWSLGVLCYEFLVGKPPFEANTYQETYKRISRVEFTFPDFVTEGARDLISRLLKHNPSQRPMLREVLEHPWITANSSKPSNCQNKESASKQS
Method: AurA Luminescence-Based ATP Depletion Enzyme Assay
Materials: Kemptide peptide substrate=LRRASLG (Biopeptide, San Diego, Calif.), ATP (Sigma Cat#A-3377, FW=551), HEPES buffer, pH 7.5, 10% Brij 35 (Calbiochem Cat#203728), MgCl2, Staurosporine (Streptomyces sp. Sigma Cat#85660-1MG), white Costar 384-well flat-bottom plate (VWR Cat#29444-088), Autophosphorylated AurA kinase (see below), Kinase-Glo™ (Promega Cat#V6712).
Stock Solutions: 10 mM Kemptide peptide (7.72 mg/ml in water), stored at −20° C.; 100 mM HEPES buffer+0.015% Brij 35, pH 7.5 (5 ml 1M HEPES stock+75 μL 10% Brij 35+45 ml miliQH2O); 10 mM ATP (5.51 mg/ml in dH2O) stored at −20° C. (diluted 50 μl into total of 10 ml miliQH2O daily=50 μM ATP working stock); 100 mM MgCl2; 200 μM Staurosporine, 2× Kinase-Glo™ reagent (made fresh or stored at −20° C.).
AurA Autophosphorylation Reaction: ATP and MgCl2 were added to 1-5 mg/ml AurA at final concentrations of 10 mM and 100 mM, respectively. The autophosphorylation reaction was incubated at 21° C. for 2-3 h. The reaction was stopped by the addition of EDTA to a final concentration of 50 mM, and samples were flash frozen with liquid N2 and stored at −80° C.
Standard Assay Setup for 384-well format (20 μl kinase reaction, 40 μl detection reaction): 10 mM MgCl2; 0.2 mM Kemptide peptide; 1 μl test compound (in DMSO); 0.3 μg/ml Autophosphorylated AurA kinase; 10 μM ATP; 100 mM HEPES+0.015% Brij buffer. Positive controls contained DMSO with no test compound. Negative controls contained 5 μM staurosporine. The kinase reactions were initiated at time t=0 by the addition of ATP. Kinase reactions were incubated at 21° C. for 45 min, then 20 μl of Kinase-Glo™ reagent were added to each well to quench the kinase reaction and initiate the luminescence reaction. After a 20 min incubation at 21° C., the luminescence was detected in a plate-reading luminometer.
The Sf9 insect cell pellets (˜18 g) produced from 6 L of cultured cells expressing human Aurora-2 were resuspended in 50 mM Na Phosphate pH 8.0, 500 mM NaCl, 10% glycerol, 0.2% n-octyl-β-D-glucopyranoside (BOG) and 3 mM β-Mercaptoethanol (BME). One tablet of Roche Complete, EDTA-free protease inhibitor cocktail (Cat#1873580) and 85 units Benzonase (Novagen Cat#70746-3)) were added per 1 L of original culture. Pellets were resuspended in approximately 50 ml per 1 L of original culture and were then sonicated on ice with two 30-45 sec bursts (100% duty cycle). Debris was removed by centrifugation and the supernatant was passed through a 0.8 μm syringe filter before being loaded onto a 5 ml Ni^2+ HiTrap column (Pharmacia). The column was washed with 6 column volumes of 50 mM Na Phosphate pH 8.0, 500 mM NaCl, 10% glycerol, 3 mM BME. The protein was eluted using a linear gradient of the same buffer containing 500 mM Imidazole. The eluant (24 ml) was cleaved overnight at 4° C. in a buffer containing 50 mM Na Phosphate pH 8.0, 500 mM NaCl, 10% glycerol, 3 mM BME and 10,000 units of TEV (Invitrogen Cat#10127-017). The protein was passed over a second nickel affinity column as described above; the flow-through was collected. The cleaved protein fractions were combined and concentrated using spin concentrators. Further purification was done by gel filtration chromatography on a S75 sizing column in 50 mM Na Phosphate (pH 8.0), 250 mM NaCl, 1 mM EDTA, 0.1 mM AMP-PNP or ATP buffer, and 5 mM DTT. The cleanest fractions were combined and concentrated to approximately 8-11 mg/ml, and were either flash frozen in liquid nitrogen in 120 μl aliquots and stored at −80° C., or stored at 4° C.

| IC50 [1] [nM] | SMILES | IC50 (HCT116 cells) [nM] |
| --- | --- | --- |
| > 500 | CCN(CCC#N)C(=O)c1ccc(-c2ccnc(Nc3ccncc3)n2)s1 | 1000 to 5000 |
| 100 to 500 | NC(=O)c1cccc(Nc2nccc(-c3ccc(Br)s3)n2)c1 | – |
| 100 to 500 | Cc1noc(C)c1-c1ccc(-c2ccnc(Nc3cccc(C(C)O)c3)n2)s1 (stereo not shown) | – |
| < 100 | O=S(=O)(Nc1ncc[nH]1)c1ccc(Nc2nccc(-c3ccc(S(=O)(=O)N4CCCCC4)s3)n2)cc1 | – |
| < 100 | CC(O)c1cccc(Nc2nccc(-c3cc(C(=O)NCc4ccccc4)cs3)n2)c1 (stereo not shown) | – |
| 100 to 500 | CC(O)c1cccc(Nc2nccc(-c3ccc(CNC(=O)c4ccccc4)s3)n2)c1 (stereo not shown) | – |
